# From patent US10537610B1, “Peptide for inhibition of cancer” (priority 2018, dated 2020)
# Where two headings read alike, the source gives them in different places. Non-standard residues stand in square brackets, D forms with d. Residues, ends and D or L forms follow the SMILES beside them.
# Tests used:
# Type in all cases: cell-based, human
# JAM-A = assay: Western blot of JAM-A protein in HMEC-1 cells
# Protocol: The cells were lysed with lysis buffer (1% Triton X-100 and 0.1% SDS in PBS) supplemented with Halt Protease Inhibitor Cocktail (Thermo Scientific, Waltham, Mass., USA). For the equalization between the samples before the semi-quantitative analyses the protein content of lysates was determined with the BCA Protein Assay Kit according to the manufacturer's protocol (Thermo Scientific). Cell lysate aliquots at a protein content of 50 μg per sample were boiled with 5× concentrated loading buffer (final concentrations: 50 mM Tris-HCl, pH 6.8, 8% glycerol, 2% SDS, 5% β-mercaptoethanol, 0.002% bromophenol blue), separated under reducing conditions on 4-20% gradient SDS-PAGE gels (Bio-Rad) and electroblotted (120 min, 200 mA, 4° C.) onto polyvinylidene difluoride (PVDF) membranes (Bio-Rad). The membranes were washed with Tris-buffered saline (TBS) and blocked for 2 hours with TBS containing 5% nonfat dry milk at room temperature. Then, the membranes were incubated overnight at 4° C. with an appropriate amount of primary antibody diluted in TBS containing 0.05% Tween 20 (TBST). The following primary antibodies were used: monoclonal rabbit anti-JAM-A (Abcam, Cambridge, UK) at a dilution of 1:500 and monoclonal mouse anti-GAPDH (R&D Systems, Minneapolis, Minn., USA) at a dilution of 1:1000. The membranes were washed several times with TBST and incubated for 1 hour at room temperature with the corresponding polyclonal anti-rabbit and anti-mouse HRP-conjugated secondary antibodies (Santa Cruz Biotechnology, Dallas, Tex., USA) at a 1:5000 dilution in TBST. Following the subsequent washes with TBST the membranes were further processed for chemiluminescent detection using Westar TiC ECL Substrate (Cyanagen, Bologna, Italy) and the images were documented by ChemiDoc MP Imager (Bio-Rad).
# JAM-A mRNA = assay: RT-PCR of JAM-A mRNA in HMEC-1 cells; details: Tβ4 200 nM or TGF-β1 10 ng/mL
# [1] = test system: HMEC-1 endothelial monolayer
# Protocol: The cells were treated with the peptide P4D for 0, 1, 5, or 24 hours at a concentration of 500 μM. The cells treated with the Scrambled peptide P4D (Scr; 500 μM; 0, 1, 5, or 24 hours incubation time) were used as a negative control. In order to provide the positive control of the junctions tightening for impedance-based measurements of endothelial permeability, the cells were incubated with the potent activator of TJ assembly, forskolin (FSK; BioShop, Burlington, ON, Canada), for 24 hours at a concentration of 10 μM. Experiments based on impedance measurements were performed at Bionanopark, Ltd. (Lodz, Poland) with an ACEA xCELLigence® Real-Time Cell Analysis (RTCA) DP system (Roche, Mannheim, Germany) consisting of an RTCA DP instrument, a personal computer-based RTCA control unit and single-use electronic 16-well plates “E-Plate VIEW 16 PET”. All experiments were performed following the manufacturer's instructions. In brief, the gold-film electrodes deposited on the bottom of the “E-plate VIEW 16 PET” electrode arrays were equilibrated with MCDB 131 culture medium overnight. Subsequently, the medium was aspirated and replaced by a 100 μL of fresh medium for impedance background measurements. HMEC-1 cells were seeded at a density of 40,000 cells per well in MCDB 131 medium with supplements. After allowing cell sedimentation for 30 min at room temperature, plates were locked into the RTCA DP instrument for continuous recording of impedance changes at three different AC frequencies (10 kHz, 25 kHz, 50 kHz), which are expressed as Cell Index (CI) values. CI is a dimensionless parameter based on relative impedance changes referenced to the values of the cell-free electrode at each frequency: [formula] where N is the number of the frequency points at which the impedance was measured, whereas […] Rb(fi) are the frequency-dependent electrode resistances with cells present and without cells, respectively. Thus, CI is a quantitative measure of cell status in a well, including the cell number, cell viability, adhesion degree, and morphology. Although CI is measured at three frequencies, only the most sensitive readings are returned by the software as a function of time and reported as the final results. In general, CI values rise with increasing coverage of the electrode with cells, which is caused at an early stage by cell sedimentation and, later on, by cell proliferation. During the phase of logarithmic cell growth HMEC-1 cells were pretreated with cytokines (TNF/IFN) and after 24 hours subsequently treated with the tested compounds (Scr, P4D, or FSK). For some experiments, the cells were treated with the compounds 2 hours after the cytokines treatment. Alternatively, the compounds treatment was applied about 3 hours after HMEC-1 seeding and about 67 hours later was followed by the cytokines treatment. This experimental approach included additionally the sample designated as 'P4D & TNF/IFN' i.e. after the pretreatment with P4D the cells were subjected to the concurrent treatment with P4D and cytokines.
Molecule,"level of JAM-A protein (JAM-A; Tβ4 200 nM or TGF-β1 10 ng/mL, 24-hours incubation)","action on JAM-A expression over incubation time (JAM-A; Tβ4 200 nM, 0, 2, 5, or 12 hours)",JAM-A expression on mRNA level (JAM-A mRNA),barrier-protecting effect (Cell Index) ([1]; P4D about 2.5 hours after plating plus second supplementary dose simultaneously with cytokines ('P4D & TNF/IFN')),"barrier-protecting effect (Cell Index) ([1]; P4D about 2.5 hours after plating, cytokines about 60 hours later, no supplementary dose)","barrier-strengthening effect relative to forskolin ([1]; applied ~24 hours after seeding, FSK 10 μM)","endothelial barrier function (Cell Index) ([1]; applied ~24 hours after seeding, compared to controls)",barrier-protecting effect (Cell Index) ([1]; compound applied 24 hours after treatment with inflammatory cytokines (TNF/IFN))
"Thymosin β4 (SDKPDMAEIEKFDKSKLKKTETQEKNPLPSKETIEQEKQAGES; not fully specified; Thymosin beta-4; UniProt P62328 2-44, looked up) [Tβ4]",evidently reduced the level of JAM-A protein,time-dependent,no observed changes of JAM-A expression on mRNA level,,,,,
"CC(C)[C@H](NC(=O)[C@H](CO)NC(=O)[C@H](N)CCCCN)C(=O)N[C@H](C(=O)N[C@H](CCCNC(=N)N)C(=O)N[C@@H](CCC(=O)O)C(=O)N[C@@H](CC(=O)O)C(=O)N[C@H](C(=O)NCC(=O)N[C@H](C(=O)N[C@@H](Cc1ccc(O)cc1)C(=O)N[C@H](C(=O)N[C@@H](CS)C(N)=O)[C@@H](C)O)[C@@H](C)O)[C@@H](C)O)[C@@H](C)O [Peptide P4D, NH2-(dK)-SVT-(dR)-EDTGTYTC-CONH2] (H-[dK]SVT[dR]EDTGTYTC-NH2)",,,,even more evident than that one of FSK,did not reveal any barrier-protecting properties,apparently weaker than that one of forskolin,slightly strengthened endothelial barrier function,did not reproduce the barrier-protecting effect of FSK
